Experimental data taken from patent US20230310356A1, “COMPOSITION FOR PREVENTING, AMELIORATING, OR TREATING BRAIN DAMAGE AND MILD COGNITIVE IMPAIRMENT COMPRISING GLUTAMINE AS EFFECTIVE COMPONENT” (INDUSTRY-ACADEMIC COOPERATION FOUNDATION GYEONGSANG …, priority 2020, published 2023).

System: p47phox
Assay: Double-IHC protein expression after CIS and glutamine supplementation: p47phox
Assay type: in vivo, mouse
Conditions: microglial cells in infralimbic cortex and hippocampal CA1 region; glutamine supplementation diet vs stress group
Protocol: Control (CTL) is a group which received normal diet (common diet with nutritional balance) without any stress, CTL+Gln group is a normal diet group supplemented with glutamine (150 mg/kg of feed) and without any stress, STR is a normal diet group under stress, and STR+Gln group is a normal diet group supplemented with glutamine (150 mg/kg of feed) under stress. The stress group (STR) was individually brought by force to a restrainer for 2 hours every day (i.e., between 2 PM and 4 PM) so that the animals are applied with chronic immobilization stress for 15 days. To determine the specific changes in the brain tissues after glutamine supplementation, double staining was carried out with a cell marker so that the proteins related to a change in ROS/RNS content (i.e., iNOS; nNOS; and p47phox and p67phox as a subunit of NOX) with cell markers are analyzed by double-IHC (immunohistochemistry). Twenty-four hours after applying the last stress, the mouse was anesthetized with avertin, and perfused with PBS (pH 7.4) and 4% formaldehyde. After that, the brain was removed, fixed, and cut to a thickness with 40 μm. […]

NC(=O)CC[C@H](N)C(=O)O [glutamine]
expression amount of p47phox: statistically significant decrement
